The text below walks through data of patent US20070254910A1, “CHEMICAL COMPOUNDS” (priority 2004, published 2007).

Structures are written as SMILES. Where two headings read alike, the source gives them in different places.

The test system of this experiment is HIV. The experiment is described as follows: HOS HIV anti-infectivity assay (strain not stated). It is filed as cell-based. Particulars: read-out: Activity Level. The method, then: Compounds were profiled against two HIV-1 viruses, the M-tropic (CCR5 utilizing) Ba-L strain and the T-tropic (CXCR4 utilizing) IIIB strain. Both viruses were propagated in human peripheral blood lymphocytes. Compounds were tested for there ability to block infection of the HOS cell line (expressing hCXCR4/hCCR5/hCD4/pHIV-LTR-luciferase) by either HIV-1 Ba-L or HIV-1 IIIB. Compound cytotoxicity was also examined in the absence of virus addition.
HOS cells (expressing hCXCR4/hCCR5/hCD4/pHIV-LTR-luciferase) were harvested and diluted in Dulbeccos modified Eagles media supplemented with 2% FCS and non-essential amino acid to a concentration of 60,000 cells/ml. The cells were plated into 96-well plates (100 ul per well) and the plates were placed in a tissue culture incubator (37° C.; 5% CO2/95% air) for a period of 24 h.
Subsequently, 50 ul of the desired drug solution (4 times the final concentration) was added to each well and the plates were returned to the tissue culture incubator (37° C.; 5% CO2/95% air) for 1 h. Following this incubation 50 ul of diluted virus was added to each well (approximately 2 million RLU per well of virus). The plates were returned to the tissue culture incubator (37° C.; 5% CO2/95% air) and were incubated for a further 96 h.
Following this incubation the endpoint for the virally infected cultures was quantified following addition of Steady-Glo Luciferase assay system reagent (Promega, Madison, Wis.). Cell viability or non-infected cultures was measured using a CellTiter-Glo luminescent cell viability assay system (Promega, Madison, Wis.). All luminescent readouts are performed on a Topcount luminescence detector (Packard, Meridien, Conn.).

Where [1] appears, read: Human immunodeficiency virus 1, HOS HIV anti-infectivity assay.

On to `CN(C)CCOc1cccc2nc(CN(C)[C@H]3CCCc4cccnc43)c(CO)n12` [Example 78, [5-{[2-(Dimethylamino)ethyl]oxy}-2-({methyl[(8S)-5,6,7,8-tetrahydro-8-quinolinyl]amino}methyl)imidazo[1,2-a]pyridin-3-yl]methanol], for which the IC50 under setting [1] was less than 100 nM. Still for that read-out and setting: to `CN(Cc1nc2cccc(OCCN3CCCC3)n2c1CO)[C@H]1CCCc2cccnc21` [Example 80, (2-({Methyl[(8S)-5,6,7,8-tetrahydro-8-quinolinyl]amino}methyl)-5-{[2-(1-pyrrolidinyl)ethyl]oxy}imidazo[1,2-a]pyridin-3-yl)methanol] belongs less than 100 nM; to `CN(Cc1nc2cccc(OCCN3CCCCC3)n2c1CO)[C@H]1CCCc2cccnc21` [Example 82, (2-({Methyl[(8S)-5,6,7,8-tetrahydro-8-quinolinyl]amino}methyl)-5-{[2-(1-piperidinyl)ethyl]oxy}imidazo[1,2-a]pyridin-3-yl)methanol], less than 100 nM.

With `CC(O)c1c(CN(C)[C@H]2CCCc3cccnc32)nc2cccc(N3CCN(C)CC3)n12` (stereo partly drawn) [Example 84, 1-[5-(4-Methyl-1-piperazinyl)-2-({methyl[(8S)-5,6,7,8-tetrahydro-8-quinolinyl]amino}methyl)imidazo[1,2-a]pyridin-3-yl]ethanol], under setting [1], the IC50 was less than 100 nM. Regarding `CCC(O)c1c(CN(C)[C@H]2CCCc3cccnc32)nc2cccc(N3CCN(C)CC3)n12` (stereo partly drawn) [Example 85, 1-[5-(4-Methyl-1-piperazinyl)-2-({methyl[(8S)-5,6,7,8-tetrahydro-8-quinolinyl]amino}methyl)imidazo[1,2-a]pyridin-3-yl]-1-propanol], the IC50 under setting [1] was less than 100 nM. As to `COCc1c(CN(C)[C@H]2CCCc3cccnc32)nc2cccc(N3CCN(C)CC3)n12` [Example 86, (8S)—N-Methyl-N-{[3-[(methyloxy)methyl]-5-(4-methyl-1-piperazinyl)imidazo[1,2-a]pyridin-2-yl]methyl}-5,6,7,8-tetrahydro-8-quinolinamine], the IC50 under setting [1] is less than 100 nM.

With `CCOCc1c(CN(C)[C@H]2CCCc3cccnc32)nc2cccc(N3CCN(C)CC3)n12` [Example 87, (8S)—N-{[3-[(Ethyloxy)methyl]-5-(4-methyl-1-piperazinyl)imidazo[1,2-a]pyridin-2-yl]methyl}-N-methyl-5,6,7,8-tetrahydro-8-quinolinamine], the IC50 under setting [1] was less than 100 nM.

In the case of `CC(c1nc2cccc(N3CCN(C)CC3)n2c1CO)N(C)[C@H]1CCCc2cccnc21` (stereo partly drawn) [Example 88, [5-(4-Methyl-1-piperazinyl)-2-(1-{methyl[(8S)-5,6,7,8-tetrahydro-8-quinolinyl]amino}ethyl)imidazo[1,2-a]pyridin-3-yl]methanol], the IC50 under setting [1] was less than 100 nM.

`CN1CCN(c2cccc3nc(CN(C)C4CCCc5cccnc54)c(C(O)C(F)(F)F)n23)CC1` (stereo not shown) [Example 89A, 2,2,2-Trifluoro-1-(5-(4-methyl-1-piperazinyl)-2-{[methyl(5,6,7,8-tetrahydro-8-quinolinyl)amino]methyl}imidazo[1,2-a]pyridin-3-yl)ethanol]: the IC50 under setting [1] was less than 100 nM.

Turning to `CN1CCN(c2cccc3nc(CN(C)C4CCCc5cccnc54)c(C(O)C(F)(F)F)n23)CC1` (stereo not shown) [Example 89B, 2,2,2-Trifluoro-1-(5-(4-methyl-1-piperazinyl)-2-{[methyl(5,6,7,8-tetrahydro-8-quinolinyl)amino]methyl}imidazo[1,2-a]pyridin-3-yl)ethanol], under “HOS HIV anti-infectivity assay”, the IC50 fell in the range of 100 to 500 nM.
